From patent US10336701B2, “Pyridin-2-one derivatives of formula (II) useful as EP3 receptor antagonists” (Janssen Pharmaceutica NV, priority 2017, dated 2019) come the findings set out here.

Each structure is given as a SMILES string.

The subject of one assay is Sprague Dawley rats. Put plainly: IV infused EP3 antagonists on circulating insulin and glucose in the sulprostone infusion IVGTT model. The settings on record: SD rats, IV bolus plus infusion at 7×Ki and 10×Ki (targeted). It is filed as in vivo, rat. An excerpt: Biological Example 3—IV Infused EP3 Antagonists on Circulating Insulin and Glucose in the Sulprostone Infusion IVGTT Model
Jugular vein and carotid artery cannulated male Sprague Dawley rats (˜250 g, available from Charles River) were housed one rat per suspended cage in a temperature-controlled room with 12-hour light/dark cycle. The rats were allowed ad libitum access to water and maintained on a regular diet. Animals were acclimated for minimum 5 days prior to the start of the experiment. Experimental procedures were carried out in accordance with institutional standards for animal care and were approved by the institute's animal care and use committee.
A blood sample for insulin and blood chemistry was collected at 20 min (t=−20) prior to the start of dosing with sulprostone and/or test compound (EP3 antagonist). […]
Blood samples from all animals were collected into Heparin treated tubes. Background was measured via a glucometer at the 0 and 2 min time points to ensure that the animal received the glucose bolus. Plasma insulin was measured via a Meso Scale Discovery metabolic assay (available from Meso Scale). Plasma glucose, free fatty acid (FFA), triglycerides, cholesterol and ketones were measured on an OLYMPUS AU400E chemistry analyzer. Observations on animal health were recorded throughout the procedure. […]

Assay [1] deals with T1, EP3 receptor (Homo sapiens, UniProt P43115).
T1 construct: purchased Millipore HTS092M
T1 sequence (P43115 1-390): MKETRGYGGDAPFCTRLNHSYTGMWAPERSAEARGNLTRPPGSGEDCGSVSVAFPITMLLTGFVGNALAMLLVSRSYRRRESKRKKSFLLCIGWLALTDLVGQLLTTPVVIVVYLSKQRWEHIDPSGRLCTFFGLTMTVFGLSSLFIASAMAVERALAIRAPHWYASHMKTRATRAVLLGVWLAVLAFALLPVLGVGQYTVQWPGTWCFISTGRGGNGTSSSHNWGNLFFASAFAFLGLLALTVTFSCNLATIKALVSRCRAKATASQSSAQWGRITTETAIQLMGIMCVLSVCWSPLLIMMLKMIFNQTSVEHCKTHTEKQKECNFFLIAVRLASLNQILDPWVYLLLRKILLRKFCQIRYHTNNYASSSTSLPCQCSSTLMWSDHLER
Put plainly: [3H]-PGE2 binding assay (EP3 competition binding). The settings on record: read-out: [3H]-PGE2 Binding Ki. The method in brief:
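Scintillation-bead competition binding with EP3 membranes (2 μg/well), 2 nM [3H]-PGE2, 0.1% DMSO, in 50 mM Tris, 10 mM MgCl2, 1 mM EDTA, pH 7.4.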

Assay [2] addresses T1, EP3 receptor. Put plainly: CHO cell cAMP assay (forskolin and sulprostone stimulated, HTRF). It counts as cell-based. As to conditions: CHO cells; sulprostone 700 nM (EC80) and FSK 2 μM (EC70), 37° C. for 30 minutes; read-out: CHO_cAMP IC50.

Take `CC(C)C(/C=C1\OC(=O)NC1=O)c1ccc(-c2ccc3cccc(F)c3c2)[nH]c1=O` (racemic) [Compound #62, (Z)-5-(2-(6-(8-fluoronaphthalen-2-yl)-2-oxo-1,2-dihydropyridin-3-yl)-3-methylbutylidene)oxazolidine-2,4-dione]: the “reversal of suppression of glucose stimulate insulin secretion (GSIS) by sulprostone” value with Sprague Dawley rats is reported as “reverse suppression of glucose stimulate insulin secretion (GSIS) by sulprostone”.
Take `CC1(c2ccc(-c3ccc4ccccc4c3)[nH]c2=O)CNC(NS(C)(=O)=O)=N1` (stereo not shown) [compound 290, N-[4-methyl-4-[6-(naphthalen-2-yl)-2-oxo-1,2-dihydropyridin-3-yl]-4,5-dihydro-1H-imidazol-2-yl]methanesulfonamide]: the Ki – broadly, the equilibrium dissociation constant of an inhibitor or competing ligand from its target – on EP3 receptor [1] came to 116 nM. Further, the IC50 (in general, the concentration that gives 50% inhibition) at EP3 receptor [2] is 1910 nM.
In the case of `CC(C)C1(c2ccc(-c3ccc4cccc(F)c4c3)[nH]c2=O)CNC(NC#N)=N1` (stereo not shown) [compound 291, N-(4-(6-(8-fluoronaphthalen-2-yl)-2-oxo-1,2-dihydropyridin-3-yl)-4-isopropyl-4,5-dihydro-1H-imidazol-2-yl)cyanamide], on EP3 receptor [1], the Ki was found to be 3 nM. In addition, the IC50 at EP3 receptor [2] was 19 nM.
As for `CONC1=NC(c2ccc(-c3ccc4cccc(F)c4c3)[nH]c2=O)(C(C)C)CN1` (stereo not shown) [compound 292, (Z)-6-(8-fluoronaphthalen-2-yl)-3-(4-isopropyl-2-(methoxyimino)imidazolidin-4-yl)pyridin-2(1H)-one], the Ki on EP3 receptor [1] was found to be 2 nM. On EP3 receptor [2], the IC50 came to 6 nM.
`CO/N=C1\NCC(c2cc(C)c(-c3ccc4cccc(F)c4c3)[nH]c2=O)(C(C)C)N1` (stereo not shown) [compound 293, (E)-6-(8-fluoronaphthalen-2-yl)-3-(4-isopropyl-2-(methoxyimino)imidazolidin-4-yl)-5-methylpyridin-2(1H)-one]: the Ki at EP3 receptor [1] was determined as 14 nM. At EP3 receptor [2], the IC50 came out at 207 nM.
Consider `CC(C)C1(c2ccc(-c3ccc4cccc(F)c4c3)[nH]c2=O)NC(=S)NC1=O` (stereo not shown) [compound 294, 6-(8-fluoronaphthalen-2-yl)-3-(4-isopropyl-5-oxo-2-thioxoimidazolidin-4-yl)pyridin-2(1H)-one], for which the Ki on EP3 receptor [1] was determined as 6 nM. Also, at EP3 receptor [2], the IC50 came out at 56 nM.
On to `CCn1ncc2c(F)cc(-c3ccc(C4(O)CCCN(S(=O)(=O)C(C)C)C4)c(=O)[nH]3)cc21` (stereo not shown) [compound 295, 6-(1-ethyl-4-fluoro-1H-indazol-6-yl)-3-(3-hydroxy-1-(isopropylsulfonyl)piperidin-3-yl)pyridin-2(1H)-one], for which the Ki at EP3 receptor [1] was found to be 2 nM. The IC50 on EP3 receptor [2] stood at 79 nM.
As for `CCn1ncc2c(F)cc(-c3ccc(C4(F)CCCN(S(=O)(=O)C(C)C)C4)c(=O)[nH]3)cc21` (stereo not shown) [compound 296, 6-(1-ethyl-4-fluoro-1H-indazol-6-yl)-3-(3-fluoro-1-(isopropylsulfonyl)piperidin-3-yl)pyridin-2(1H)-one], the Ki on EP3 receptor [1] is 1 nM. Besides, the half-inhibitory concentration (IC50) at EP3 receptor [2] is 103 nM.
Take `CCn1ncc2c(F)cc(-c3ccc(C4=CCN(S(=O)(=O)C(C)C)C4)c(=O)[nH]3)cc21` [compound 297, 6-(1-ethyl-4-fluoro-1H-indazol-6-yl)-3-(1-(isopropylsulfonyl)-2,5-dihydro-1H-pyrrol-3-yl)pyridin-2(1H)-one]: at EP3 receptor [1], the Ki was found to be 8 nM. The half-maximal inhibitory concentration (IC50) on EP3 receptor [2] is 194 nM.
For the compound `CCn1ncc2c(F)cc(-c3ccc(C4(O)CN(S(=O)(=O)C(C)C)C4)c(=O)[nH]3)cc21` [compound 298, 6-(1-ethyl-4-fluoro-1H-indazol-6-yl)-3-(3-hydroxy-1-(isopropylsulfonyl)azetidin-3-yl)pyridin-2(1H)-one], the Ki at EP3 receptor [1] came out at 979 nM. Besides, the IC50 on EP3 receptor [2] stood at 8300 nM.
Turning to `CC(C)/C(=C1\OC(=O)NC1=O)c1ccc(-c2ccc3cccc(F)c3c2)[nH]c1=O` [compound 304, (E)-5-(1-(6-(8-fluoronaphthalen-2-yl)-2-oxo-1,2-dihydropyridin-3-yl)-2-methylpropylidene)oxazolidine-2,4-dione], the Ki at EP3 receptor [1] was 270 nM. The IC50 at EP3 receptor [2] stood at 680 nM.
Taken in the same sequence, the figures for `CC(C)C(Cc1ccc(-c2ccc3cccc(F)c3c2)[nH]c1=O)c1ncc[nH]1` (stereo not shown) [compound 307, 3-(2-(1H-Imidazol-2-yl)-3-methylbutyl)-6-(8-fluoronaphthalen-2-yl)pyridin-2(1H)-one] were 53 nM and 385 nM.
In the case of `CC(C)C(Cc1ccc(-c2ccc3cccc(F)c3c2)[nH]c1=O)c1nnc[nH]1` (stereo not shown) [compound 309, 6-(8-Fluoronaphthalen-2-yl)-3-(3-methyl-2-(4H-1,2,4-triazol-3-yl)butyl)pyridin-2(1H)-one], on EP3 receptor [1], the Ki was determined as 12 nM. Further, the IC50 on EP3 receptor [2] is 66 nM.
